Assay results published in ChEMBL document CHEMBL5214920, “Emerging impact of triazoles as anti-tubercular agent” (Eur J Med Chem, 2022).
Converted amounts (≈) assume the structure as drawn.

Experiments:
[1] = tested on: Mycobacterium tuberculosis; experiment: Antitubercular activity against Mycobacterium tuberculosis mc 2 6230 assessed as bacterial growth inhibition; format: functional
[2] = tested on: Mycobacterium tuberculosis; experiment: Antitubercular activity against Mycobacterium tuberculosis H37Rv assessed as reduction in relative light units at 5 ug/ml incubated for 4 hrs followed by addition of D-luciferin by luciferase based luminometer analysis relative to control; format: functional; set-up: scale not given: the % may be the effect or the level left; conditions: dose 5 µg/ml
[3] = tested on: Mycobacterium tuberculosis; experiment: Antitubercular activity against Mycobacterium tuberculosis H37Rv assessed as reduction in relative light units at 25 ug/ml incubated for 4 hrs followed by addition of D-luciferin by luciferase based luminometer analysis relative to control; format: functional; set-up: scale not given: the % may be the effect or the level left; conditions: dose 25 µg/ml
[4] = tested on: Mycobacterium tuberculosis; experiment: Antitubercular activity against Mycobacterium tuberculosis H37Rv ATCC 27294 assessed as bacterial growth inhibition; format: functional
[5] = tested on: Mycobacterium tuberculosis; experiment: Antitubercular activity against Mycobacterium tuberculosis H37Rv assessed as bacterial growth inhibition; format: functional
[6] = tested on: Mycobacterium tuberculosis; experiment: Antitubercular activity against Mycobacterium tuberculosis mc 2 7000 assessed as bacterial growth inhibition; format: functional
[7] = tested on: Mycobacterium tuberculosis; experiment: Antitubercular activity against Mycobacterium tuberculosis H37Rv assessed as bacterial growth inhibition by direct susceptibility assay; format: functional
[8] = Cytotoxicity against CHO cells assessed as cell growth inhibition by MTT assay; format: toxicity, cell-based, Cricetulus griseus; conditions: chinese hamster
[9] = tested on: Mycobacterium tuberculosis; experiment: Antitubercular activity against Mycobacterium tuberculosis H37Rv assessed as bacterial growth inhibition measured after 7 days by direct susceptibility assay; format: functional; conditions: 168 h, time 7 day
[10] = tested on: Mycobacterium tuberculosis; experiment: Antitubercular activity against dormant stage of Mycobacterium tuberculosis H37Ra ATCC 25177 assessed as bacterial growth inhibition by XTT assay; format: functional
[11] = tested on: Mycobacterium tuberculosis; experiment: Antitubercular activity against Mycobacterium tuberculosis H37Rv assessed as reduction in relative light units at 2 ug/ml incubated for 4 hrs followed by addition of D-luciferin by luciferase based luminometer analysis relative to control; format: functional; set-up: scale not given: the % may be the effect or the level left; conditions: dose 2 µg/ml
[12] = tested on: Mycobacterium tuberculosis; experiment: Antitubercular activity against active stage of Mycobacterium tuberculosis H37Ra ATCC 25177 assessed as bacterial growth inhibition by XTT assay; format: functional
[13] = tested on: Mycobacterium tuberculosis; experiment: Antitubercular activity against Mycobacterium tuberculosis H37Rv assessed as bacterial growth inhibition measured after 7 days by MABA method; format: functional; conditions: 168 h, time 7 day
[14] = tested on: Mycobacterium tuberculosis; experiment: Antitubercular activity against Mycobacterium tuberculosis H37Rv ATCC 27294 assessed as bacterial growth inhibition by agar dilution method; format: functional
[15] = tested on: Mycobacterium tuberculosis; experiment: Antitubercular activity against Mycobacterium tuberculosis H37Rv ATCC 27294 assessed as bacterial growth inhibition measured after 48 hrs by broth dilution method; format: functional
[16] = tested on: Mycobacterium tuberculosis; experiment: Antitubercular activity against Mycobacterium tuberculosis H37Rv ATCC 27294 assessed as bacterial growth inhibition measured after 5 days by MABA method; format: functional; conditions: H37Rv ATCC 27294, 120 h, time 5 day
[17] = tested on: Mycobacterium tuberculosis; experiment: Antitubercular activity against Mycobacterium tuberculosis H37Rv assessed as bacterial growth inhibition measured after 7 days by broth microdilution assay; format: functional; conditions: 168 h, time 7 day
[18] = tested on: Mycobacterium tuberculosis; experiment: Antitubercular activity against Mycobacterium tuberculosis H37Rv assessed as bacterial growth inhibition by micro broth dilution assay; format: functional
[19] = tested on: Mycobacterium tuberculosis; experiment: Antitubercular activity against Mycobacterium tuberculosis H37Rv ATCC 27294 assessed as bacterial growth inhibition measured after 7 days by MABA method; format: functional; conditions: H37Rv ATCC 27294, 168 h, time 7 day
[20] = tested on: Mycobacterium tuberculosis; experiment: Antitubercular activity against Mycobacterium tuberculosis H37Rv assessed as bacterial growth inhibition measured after 5 days by MABA method; format: functional; conditions: 120 h, time 5 day
[21] = tested on: Mycobacterium tuberculosis; experiment: Antitubercular activity against Mycobacterium tuberculosis H37Rv ATCC 27294 assessed as bacterial growth inhibition measured after 10 days by MABA method; format: functional; conditions: H37Rv ATCC 27294, 240 h, time 10 day
[22] = tested on: Mycobacterium tuberculosis; experiment: Antitubercular activity against Mycobacterium tuberculosis H37Rv assessed as bacterial growth inhibition measured after 24 hrs by agar micro dilution method; format: functional
[23] = tested on: Mycobacterium tuberculosis; experiment: Antitubercular activity against Mycobacterium tuberculosis H37Rv assessed as bacterial growth inhibition measured after […] by twofold agar dilution method; format: functional
DNA gyrase subunit B = DNA gyrase subunit B (Mycobacterium smegmatis, UniProt P0C559); experiment: Inhibition of Mycobacterium smegmatis GyrB incubated for 120 mins in presence of ATP by malachite green r staining based assay; set-up: species or system Mycolicibacterium smegmatis
[24] = molecular target: DNA gyrase subunit A/DNA gyrase subunit B (Mycobacterium tuberculosis (strain ATCC 25618 / H37Rv), UniProt P9WG45+P9WG47); experiment: Inhibition of Mycobacterium tuberculosis DNA gyrase supercoiling activity; format: protein-complex assay
[25] = tested on: Mycobacterium tuberculosis; experiment: Antitubercular activity against Mycobacterium tuberculosis H37Rv ATCC 27294 assessed as bacterial growth inhibition measured after 9 days by twofold agar dilution method; format: functional; conditions: H37Rv ATCC 27294, 216 h, time 9 day
[26] = tested on: Mycobacterium tuberculosis; experiment: Antitubercular activity against Mycobacterium tuberculosis spec. 192 assessed as bacterial growth inhibition; format: functional
[27] = tested on: Mycobacterium tuberculosis; experiment: Antitubercular activity against Mycobacterium tuberculosis H37Rv ATCC 25618 assessed as bacterial growth inhibition; format: functional
[28] = tested on: Mycobacterium tuberculosis; experiment: Antitubercular activity against Mycobacterium tuberculosis spec. 210 assessed as bacterial growth inhibition; format: functional
[29] = tested on: Mycobacterium tuberculosis; experiment: Potency index, ratio of ethambutol MIC to test compound MIC for antitubercular activity against Mycobacterium tuberculosis H37Rv assessed as bacterial growth inhibition; format: functional

Chain of DNA gyrase subunit A/DNA gyrase subunit B (P9WG45 whole entry): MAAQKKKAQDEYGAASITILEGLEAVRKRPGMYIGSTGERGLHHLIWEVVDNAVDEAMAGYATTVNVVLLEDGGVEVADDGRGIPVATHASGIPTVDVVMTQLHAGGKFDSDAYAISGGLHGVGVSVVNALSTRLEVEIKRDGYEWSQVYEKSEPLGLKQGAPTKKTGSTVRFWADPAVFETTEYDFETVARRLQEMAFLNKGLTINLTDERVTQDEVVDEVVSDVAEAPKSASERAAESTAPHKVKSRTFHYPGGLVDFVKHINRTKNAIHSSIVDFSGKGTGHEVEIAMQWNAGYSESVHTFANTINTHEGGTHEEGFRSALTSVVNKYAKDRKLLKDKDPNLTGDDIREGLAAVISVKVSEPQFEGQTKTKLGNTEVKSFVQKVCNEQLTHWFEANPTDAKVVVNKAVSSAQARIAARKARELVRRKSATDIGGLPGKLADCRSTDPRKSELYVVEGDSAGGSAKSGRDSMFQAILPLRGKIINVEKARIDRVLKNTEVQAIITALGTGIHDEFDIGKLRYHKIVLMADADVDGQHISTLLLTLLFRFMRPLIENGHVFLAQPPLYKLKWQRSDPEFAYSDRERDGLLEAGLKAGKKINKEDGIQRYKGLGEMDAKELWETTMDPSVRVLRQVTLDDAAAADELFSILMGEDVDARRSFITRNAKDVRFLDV
Chain of DNA gyrase subunit A/DNA gyrase subunit B (P9WG47 whole entry): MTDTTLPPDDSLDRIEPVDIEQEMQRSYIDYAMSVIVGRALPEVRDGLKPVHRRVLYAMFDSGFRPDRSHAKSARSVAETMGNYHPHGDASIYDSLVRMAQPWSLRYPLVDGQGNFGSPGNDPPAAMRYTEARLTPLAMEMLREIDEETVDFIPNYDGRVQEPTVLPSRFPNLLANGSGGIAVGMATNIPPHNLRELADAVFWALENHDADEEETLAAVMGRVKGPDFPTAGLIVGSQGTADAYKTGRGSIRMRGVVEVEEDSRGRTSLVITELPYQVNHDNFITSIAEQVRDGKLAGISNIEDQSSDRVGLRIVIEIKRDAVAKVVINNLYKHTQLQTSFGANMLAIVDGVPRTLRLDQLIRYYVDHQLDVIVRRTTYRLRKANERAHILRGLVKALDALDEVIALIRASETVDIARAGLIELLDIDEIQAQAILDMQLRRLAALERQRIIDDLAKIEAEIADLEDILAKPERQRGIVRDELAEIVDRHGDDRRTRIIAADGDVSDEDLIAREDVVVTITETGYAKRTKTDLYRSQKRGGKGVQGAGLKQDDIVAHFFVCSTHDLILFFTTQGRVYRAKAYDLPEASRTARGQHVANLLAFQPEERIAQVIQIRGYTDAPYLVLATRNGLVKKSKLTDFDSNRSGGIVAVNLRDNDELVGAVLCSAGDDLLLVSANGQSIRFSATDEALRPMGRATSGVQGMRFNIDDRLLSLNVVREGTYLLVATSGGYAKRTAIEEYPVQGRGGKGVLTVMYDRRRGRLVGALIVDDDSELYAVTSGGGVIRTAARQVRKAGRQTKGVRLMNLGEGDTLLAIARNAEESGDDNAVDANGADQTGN
Chain of DNA gyrase subunit B (P0C559 whole entry): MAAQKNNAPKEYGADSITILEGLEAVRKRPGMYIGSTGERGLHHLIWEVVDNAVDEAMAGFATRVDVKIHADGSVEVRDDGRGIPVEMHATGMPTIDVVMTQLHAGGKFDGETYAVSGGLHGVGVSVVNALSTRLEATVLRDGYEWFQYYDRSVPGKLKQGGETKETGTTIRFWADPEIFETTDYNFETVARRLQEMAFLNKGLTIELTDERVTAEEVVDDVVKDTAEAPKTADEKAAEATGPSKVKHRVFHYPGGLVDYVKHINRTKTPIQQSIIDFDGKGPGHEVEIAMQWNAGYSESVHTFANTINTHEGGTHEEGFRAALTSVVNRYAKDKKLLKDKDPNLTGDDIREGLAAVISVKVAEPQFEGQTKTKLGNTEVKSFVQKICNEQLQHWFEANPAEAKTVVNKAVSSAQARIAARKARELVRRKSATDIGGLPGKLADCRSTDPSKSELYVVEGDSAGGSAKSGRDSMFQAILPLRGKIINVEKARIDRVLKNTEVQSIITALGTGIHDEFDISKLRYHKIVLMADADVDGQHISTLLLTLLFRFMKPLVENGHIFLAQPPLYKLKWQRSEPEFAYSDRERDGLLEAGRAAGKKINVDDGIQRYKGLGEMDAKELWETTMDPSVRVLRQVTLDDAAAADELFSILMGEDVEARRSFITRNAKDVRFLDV

O=C(N/N=C\c1ccccc1-n1cc(CN2C(=O)/C(=N\NC(=O)c3ccncc3)c3cc(Cl)ccc32)nn1)c1ccncc1
MIC99 [1]: 0.36 µg/mL (≈ 0.595 µM)

c1ccc(-c2cn(Cc3ccc4ccccc4n3)nn2)cc1
Activity [2]: 58.2%
Activity [3]: 80.79%

CCOC(=O)c1c(-n2cc(-c3ccc(C)cc3)nn2)c2ccccc2n(C)c1=O
MIC [4]: 3.13 µg/mL (≈ 8.06 µM)

O=C(OCc1cn(-c2ccccc2)nn1)c1c[n+]([O-])c2ccc(Cl)cc2[n+]1[O-]
MIC [5]: 30.4 µg/mL (≈ 76.3 µM)
MIC [1]: 30.4 µg/mL (≈ 76.3 µM)
MIC [6]: 30.4 µg/mL

COc1c(N2CCN(C(=O)Cn3cc(CN4C(=O)C(=O)c5cc(C)ccc54)nn3)C(C)C2)c(F)cc2c(=O)c(C(=O)O)cn(C3CC3)c12 (centres undefined)
MIC [7]: 1 µg/mL (≈ 1.52 µM)
CC50 [8]: 64 µg/mL (≈ 97.3 µM)

CO[C@H]1/C=C/O[C@@]2(C)Oc3c(C)c(O)c4c(O)c(c(/C=N/N5CCN(C)CC5)c(O)c4c3C2=O)NC(=O)/C(C)=C\C=C\[C@H](C)[C@H](O)[C@@H](C)[C@@H](O)[C@@H](C)[C@H](OC(C)=O)[C@@H]1C [RIFAMPIN]
MIC [9]: 0.043 µg/mL (≈ 0.0523 µM)
MIC [10]: 0.075 µg/mL (≈ 0.0911 µM)
MIC [6]: 0.12 µM
Activity [11]: 87%
MIC [12]: 0.074 µg/mL (≈ 0.0899 µM)
MIC [13]: 0.2 µg/mL

CC1(C)OC2C3OC(C)(C)O[C@H]3C(Cn3cc(N4C(=O)CCC4=O)nn3)O[C@@H]2O1 (some centres undefined)
MIC [14]: 3.12 µg/mL (≈ 7.65 µM)

Cc1ccc(-c2nc3ccc(C)cn3c2CC(=O)N(C)C)cc1 [ZOLPIDEM]
MIC [15]: 10 µM (≈ 3.07 µg/mL)
MIC [16]: 3.12 µg/mL

O=[N+]([O-])c1ncn(CCCCNS(=O)(=O)c2ccc(Cl)s2)n1
MIC [17]: 3.13 µM (≈ 1.15 µg/mL)

CC[C@@H](CO)NCCN[C@@H](CC)CO [ETHAMBUTOL]
MIC [18]: 1 µg/mL
MIC [19]: 7.64 µM (≈ 1.56 µg/mL)
MIC [17]: 6.25 µM (≈ 1.28 µg/mL)
MIC [16]: 7.63 µM
MIC [20]: 1.56 µg/mL (≈ 7.64 µM)
MIC [13]: 1.56 µg/mL

NNC(=O)c1ccncc1 [ISONIAZID]
MIC [18]: 0.05 µg/mL
MIC [9]: 0.075 µg/mL (≈ 0.547 µM)
MIC [10]: 0.043 µg/mL (≈ 0.314 µM)
MIC [21]: > 300 µg/mL
MIC [6]: 2.92 µM
MIC [16]: 0.7 µM
MIC [12]: 0.074 µg/mL (≈ 0.54 µM)

CN[C@@H]1[C@H](O[C@H]2[C@H](O[C@H]3[C@H](O)[C@@H](O)[C@H](N=C(N)N)[C@@H](O)[C@@H]3N=C(N)N)O[C@@H](C)[C@]2(O)C=O)O[C@@H](CO)[C@H](O)[C@H]1O [STREPTOMYCIN]
MIC [21]: 2 µg/mL (≈ 3.44 µM)
MIC [22]: 3.12 µg/mL (≈ 5.37 µM)
MIC [16]: 6.25 µg/mL
MIC [20]: > 6.25 µg/mL

O=[N+]([O-])c1ccc(-c2n[nH]c(=S)[nH]2)cc1
MIC [10]: 0.64 µg/mL (≈ 2.88 µM)
MIC [12]: 9.05 µg/mL (≈ 40.7 µM)

O=C1CC2CN(c3ccc(N4C[C@H](Cn5ccnn5)OC4=O)cc3F)CC2C1 (some centres undefined)
MIC [23]: 0.5 µg/mL (≈ 1.3 µM)

CC1(C)OC2C3OC(C)(C)O[C@H]3C(Cn3cc(N4C(=O)CCCC4=O)nn3)O[C@@H]2O1 (some centres undefined)
MIC [14]: 3.12 µg/mL (≈ 7.4 µM)

COc1ccc2c(c1)/C(=N/NC(=O)c1ccncc1)C(=O)N2Cc1cn(-c2ccccc2/C=N\NC(=O)c2ccncc2)nn1
MIC99 [1]: 0.36 µg/mL (≈ 0.599 µM)

C[C@]1(COc2ccc(-n3cc(COc4ccc(OC(F)(F)F)cc4)nn3)cc2)Cn2cc([N+](=O)[O-])nc2O1
MIC [15]: 0.23 µM (≈ 0.122 µg/mL)

COc1ccc2cc(-n3cc(COc4nc(-c5ccccn5)sc4C(N)=O)nn3)c(=O)oc2c1
IC50 (DNA gyrase subunit B): 440 nM
IC50 [24]: 500 nM
MIC [13]: 6.5 µM

O=C(OCc1cn(CCCc2ccccc2)nn1)c1ccc(F)cc1
MIC [25]: 3.75 µg/mL (≈ 11 µM)

CCCCCc1ccc(-c2cn(-c3c(C(=O)OCC)c(=O)n(C)c4ccccc34)nn2)cc1
MIC [4]: 3.13 µg/mL (≈ 7.04 µM)

O=[N+]([O-])c1ncn(CCCCNS(=O)(=O)c2cc(Cl)c(Cl)s2)n1
MIC [17]: 1.56 µM (≈ 0.624 µg/mL)

CC1(C)OC2C3OC(C)(C)O[C@H]3C(Cn3cc(N4CCCC4=O)nn3)O[C@@H]2O1 (some centres undefined)
MIC [14]: 3.12 µg/mL (≈ 7.92 µM)

COc1ccc(-n2cc(Cn3nc(-c4ccccc4)c4c3CCN(C(=O)Nc3ccccc3)C4)nn2)cc1
MIC [26]: 24.7 µM (≈ 12.5 µg/mL)
MIC [27]: 24.7 µM (≈ 12.5 µg/mL)
MIC [28]: 24.7 µM (≈ 12.5 µg/mL)

Nc1ccc(-c2n[nH]c(=S)[nH]2)cc1
MIC [10]: 0.46 µg/mL (≈ 2.39 µM)
MIC [12]: > 30 µg/mL

CCOC(=O)c1c(-n2cc(-c3ccc4cc(OC)ccc4c3)nn2)c2ccccc2n(C)c1=O
MIC [4]: 3.13 µg/mL (≈ 6.89 µM)

O=C(N/N=C1\C(=O)N(Cc2ccc(Cl)cc2)c2ccccc21)c1ccc(-n2cc(-c3ccccc3)nn2)cc1O
Ratio [29]: 8
MIC [13]: 0.39 µg/mL

CC(=O)OC[C@H]1O[C@@H](Oc2cn(Cc3ccc4ccccc4n3)nn2)[C@H](OC(C)=O)[C@@H](OC(C)=O)[C@H]1OC(C)=O
Activity [2]: 76.41%
Activity [3]: 78.37%
